# Measured values reported in patent US7381746B2, “2-Aminobicyclo[3.1.0]hexane-2,6-dicarboxylic acid derivative” (Taisho Pharmaceutical Co., Ltd., priority 2003, dated 2008).
row,SMILES,melting point [°C]
1,"N[C@]1(C(=O)O)[C@H]2[C@@H](C[C@H]1SCc1cccs1)[C@]2(F)C(=O)O [Compound 1, (1R,2S,3R,5R,6R)-2-amino-3-(thiophene-2-ylmethylsulfanyl)-6-fluorobicyclo[3.1.0]hexane-2,6-dicarboxylic acid]",> 230
2,"N[C@]1(C(=O)O)[C@H]2[C@@H](C[C@H]1SCc1ccccc1-c1ccccc1)[C@]2(F)C(=O)O [Compound 2, (1R,2S,3R,5R,6R)-2-amino-3-(2-phenylbenzylsulfanyl)-6-fluorobicyclo[3.1.0]hexane-2,6-dicarboxylic acid]",> 230
3,"COc1ccc(CS[C@@H]2C[C@@H]3[C@H]([C@]2(N)C(=O)O)[C@@]3(F)C(=O)O)cc1 [Compound 3, (1R,2S,3R,5R,6R)-2-amino-3-(4-methoxybenzylsulfanyl)-6-fluorobicyclo[3.1.0]hexane-2,6-dicarboxylic acid]",> 240
4,"N[C@]1(C(=O)O)[C@H]2[C@@H](C[C@H]1SCc1ccc(F)cc1)[C@]2(F)C(=O)O [Compound 4, (1R,2S,3R,5R,6R)-2-amino-3-(4-fluorobenzylsulfanyl)-6-fluorobicyclo[3.1.0]hexane-2,6-dicarboxylic acid]",> 243
5,"CC(C)(C)c1ccc(CS[C@@H]2C[C@@H]3[C@H]([C@]2(N)C(=O)O)[C@@]3(F)C(=O)O)cc1 [Compound 5, (1R,2S,3R,5R,6R)-2-amino-3-(4-t-butylbenzylsulfanyl)-6-fluorobicyclo[3.1.0]hexane-2,6-dicarboxylic acid]",> 271
6,"N[C@]1(C(=O)O)[C@H]2[C@@H](C[C@H]1SCc1cccc(C(F)(F)F)c1)[C@]2(F)C(=O)O [Compound 6, (1R,2S,3R,5R,6R)-2-amino-3-(3-trifluoromethylbenzylsulfanyl)-6-fluorobicyclo[3.1.0]hexane-2,6-dicarboxylic acid]",> 271
7,"N[C@]1(C(=O)O)[C@H]2[C@@H](C[C@H]1SCc1ccc3ccccc3c1Br)[C@]2(F)C(=O)O [Compound 7, (1R,2S,3R,5R,6R)-2-amino-3-(1-bromo-naphthalene-2-ylmethylsulfanyl)-6-fluorobicyclo[3.1.0]hexane-2,6-dicarboxylic acid]",> 280
8,"N[C@]1(C(=O)O)[C@@H]2[C@@H](C[C@H]1SCc1ccc(Cl)c(Cl)c1)[C@H]2C(=O)O [Compound 8, (1R,2S,3R,5R,6R)-2-amino-3-(3,4-dichlorobenzylsulfanyl)-bicyclo[3.1.0]hexane-2,6-dicarboxylic acid]",> 289
9,"N[C@]1(C(=O)O)[C@H]2[C@@H](C[C@H]1SCc1ccc(Cl)c(Cl)c1)[C@]2(F)C(=O)O [Compound 9, (1R,2S,3R,5R,6R)-2-amino-3-(3,4-dichlorobenzylsulfanyl)-6-fluorobicyclo[3.1.0]hexane-2,6-dicarboxylic acid]",> 220
10,"N[C@]1(C(=O)O)[C@H]2[C@@H](C[C@H]1Sc1ccc(Cl)c(Cl)c1)[C@]2(F)C(=O)O [Compound 12, (1R,2S,3R,5R,6R)-2-amino-3-(3,4-dichlorophenylsulfanyl)-6-fluorobicyclo[3.1.0]hexane-2,6-dicarboxylic acid]",> 235
11,"N[C@]1(C(=O)O)[C@H]2[C@@H](C[C@H]1SCc1c(F)ccc(Cl)c1F)[C@]2(F)C(=O)O [Compound 13, (1R,2S,3R,5R,6R)-2-amino-3-(3-chloro-2,6-difluorobenzylsulfanyl)-6-fluorobicyclo[3.1.0]hexane-2,6-dicarboxylic acid]",> 234
12,"CC(S[C@@H]1C[C@@H]2[C@H]([C@]1(N)C(=O)O)[C@@]2(F)C(=O)O)c1ccccc1 (stereo partly drawn) [Compound 15, (1R,2S,3R,5R,6R)-2-amino-3-(1-phenyl-ethylsulfanyl)-6-fluorobicyclo[3.1.0]hexane-2,6-dicarboxylic acid]",> 307
13,"N[C@]1(C(=O)O)[C@H]2[C@@H](C[C@H]1SC(c1ccc(F)cc1)c1ccc(F)cc1)[C@]2(F)C(=O)O [Compound 16, (1R,2S,3R,5R,6R)-2-amino-3-[bis-(4-fluorophenyl)methylsulfanyl]-6-fluorobicyclo[3.1.0]hexane-2,6-dicarboxylic acid]",> 243
14,"N[C@@H]1C[C@@H]2[C@H]([C@]1(N)C(=O)O)[C@@]2(F)C(=O)O [Compound 17, (1R,2R,3R,5R,6R)-2,3-diamino-6-fluorobicyclo[3.1.0]hexane-2,6-dicarboxylic acid]",> 256
15,"N[C@]1(C(=O)O)[C@H]2[C@@H](C[C@H]1NCc1ccc(Cl)c(Cl)c1)[C@]2(F)C(=O)O [Compound 18, (1R,2R,3R,5R,6R)-2-amino-3-(3,4-dichlorobenzylamino)-6-fluorobicyclo[3.1.0]hexane-2,6-dicarboxylic acid]",> 190
